Experimental data reported in patent publication US20140087970A1, “SERINE BIOSYNTHESIS PATHWAY INHIBITION FOR TREATMENT OF CANCER” (Whitehead Institute for Biomedical Research, priority 2011, published 2014).

System: cell lines with elevated PHGDH expression (BT-20, MDA-MB-468, HCC70, Hs578T and MT3)
Test: Cell proliferation assay after lentiviral shRNA infection
Type: cell-based, human
Details: media supplemented during PHGDH knockdown
Procedure: For PHGDH or PSPH knockdown experiments, 10,000-20,000 MDA-MB-468, BT-20, HCC70, MCF-7, or MDA-MB-23 I cells were infected with shRNA-expressing lentiviruses of known titers at a multiplicity of infection of 2.5 to 5. Cells were cultured in 12-well plates and infected via a 30-minute spin at 2,250 RPM in a Beckman Coulter Allegra X-12R centrifuge with an SX4750 rotor and uPlate Carrier attachment followed by an overnight incubation in media containing polybrene. Eight days after infection the number of cells was determined using a Coulter Counter (Beckman) and used to calculate relative cell proliferation. Where indicated, standard RPMI media was supplemented with serine to concentrations 5-fold that of the serine already in the media. Where indicated, supplementation occurred at one and four days after lentiviral infection. For serine depletion experiments, cells were plated out as described above and the following day the standard culture medium was replaced with medium lacking serine or reconstituted with 1× serine. Dialyzed serum (3 kDa MWCO) was utilized in serine depletion experiments except in the case of MCF-10A cells, where standard 5% serum was utilized.

SMILES	effect of media supplementation on the PHGDH knockdown proliferation phenotype
N[C@@H](CO)C(=O)O [serine]	did not blunt the effects of the PHGDH knockdown
COC(=O)C(N)CO (centres unmarked) [methyl-serine-ester]	did not blunt the effects of the PHGDH knockdown
